Data published in US20070280915A1, “Combination Therapies Employing A Composition Comprising A Hmg Coa Reductase Inhibitor And A Vitamin B6 Related Compound” (priority 2003, published 2007).
Where “and” joins values, the source holds several entries; their conditions need not be identical. Identical values can stand only once. Like-named read-outs stand apart in the source and are kept apart here.

Columns and labels:
CYP2B6 = target: T1, CYP2B6 (Homo sapiens, UniProt P20813); test: CYP2B6 inhibition assay (substrate EFC)
T1 sequence (P20813 1-491): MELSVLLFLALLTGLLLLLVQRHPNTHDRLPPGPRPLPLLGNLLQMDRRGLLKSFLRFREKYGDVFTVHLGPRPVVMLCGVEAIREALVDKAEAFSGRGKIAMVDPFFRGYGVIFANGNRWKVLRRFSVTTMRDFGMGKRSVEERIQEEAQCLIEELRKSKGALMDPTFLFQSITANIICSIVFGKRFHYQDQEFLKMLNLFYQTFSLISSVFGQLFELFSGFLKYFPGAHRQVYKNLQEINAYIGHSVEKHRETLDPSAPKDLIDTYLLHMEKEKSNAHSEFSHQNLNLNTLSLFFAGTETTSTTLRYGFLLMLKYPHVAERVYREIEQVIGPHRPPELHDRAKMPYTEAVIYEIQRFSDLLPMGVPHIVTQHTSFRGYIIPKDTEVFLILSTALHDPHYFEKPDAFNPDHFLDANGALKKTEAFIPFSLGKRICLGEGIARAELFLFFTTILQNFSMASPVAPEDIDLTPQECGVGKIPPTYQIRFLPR
From the text: (§1) The CYP inhibition assays used microsomes (Supersomes®, Gentest Corp., Woburn, Mass.) prepared from insect cells, each expressing an individual CYP subtype (CYP1A2, CYP2A6, CYP2B6, CYP2C8, CYP2C9, CYP2C19, CYP2D6, CYP2E1 or CYP3A4) expressed from the corresponding human CYP cDNA using a baculovirus expression vector. The microsomes also incorporated supplemental cDNA-expressed human reductase and/or cytochrome b5, as these enzymes stimulate the activity of the CYPs, allowing for a reduction in the amount of enzyme required per reaction (Gentest Corp.). The assays monitored, via fluorescence detection, the formation of a fluorescent metabolite following incubation of the microsomes with a specific CYP substrate. […] Reactions (0.2 mL) were performed in 96-well microtitre plates at 37° C. in the presence of an NADPH regenerating system [NADP+, glucose-6-phosphate (G6P), glucose-6-phosphate dehydrogenase (G6PDH)] and MgCl2. […] All determinations were performed in duplicate. The reagent solutions used for all of the CYP subtype assays, except CYP2C19 and CYP3A4, were prepared by MBDI. For CYP2C19 and CYP3A4, complete reagent kits purchased from Gentest Corp. (CYP2C19/CEC: Cat. No. HTS-4000, Lot No. 1; CYP3A4/BFC: Cat. No. HTS-1000, Lot No. 1) were used to perform the assays.
(§2) Eight inhibitor and test compound concentrations were tested using 3-fold serial dilutions. The microtitre plates containing 0.1 mL/well of the latter mixture were pre-warmed to 37° C. in an incubator. […] The amount of metabolic product formed was quantified by fluorescence detection in a fluorescence plate reader utilizing excitation and emission filters that had been optimized for the detection of each metabolite.
(§3) Data Analysis—The mean of the duplicate fluorescent signals in the presence and absence (vehicle control) of each compound was calculated and corrected for the background noise. Percent inhibition was calculated as the difference in the corrected fluorescent signals in the absence and presence of the compound, divided by the corrected fluorescent signal in the absence of compound, multiplied by 100%.

CYP2A6 = target: T2, CYP2A6 (Homo sapiens, UniProt P11509); test: CYP2A6 inhibition assay (substrate coumarin)
T2 sequence (P11509 1-494): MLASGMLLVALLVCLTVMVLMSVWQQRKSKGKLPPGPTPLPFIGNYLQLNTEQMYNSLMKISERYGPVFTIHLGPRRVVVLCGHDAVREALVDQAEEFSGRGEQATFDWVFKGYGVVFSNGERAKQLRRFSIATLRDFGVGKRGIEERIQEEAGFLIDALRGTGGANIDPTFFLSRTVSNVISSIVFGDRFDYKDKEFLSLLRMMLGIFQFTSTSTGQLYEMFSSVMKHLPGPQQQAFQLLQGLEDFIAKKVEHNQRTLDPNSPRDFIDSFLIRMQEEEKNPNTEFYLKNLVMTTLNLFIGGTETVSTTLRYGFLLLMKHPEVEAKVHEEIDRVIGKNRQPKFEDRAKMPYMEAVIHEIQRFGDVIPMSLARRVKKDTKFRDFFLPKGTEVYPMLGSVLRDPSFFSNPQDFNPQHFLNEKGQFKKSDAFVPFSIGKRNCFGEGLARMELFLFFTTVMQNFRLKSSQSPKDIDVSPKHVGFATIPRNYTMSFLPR
From the text: as §1, §2, §3

CYP2E1 = target: T3, CYP2E1 (Homo sapiens, UniProt P05181); test: CYP2E1 inhibition assay (substrate MFC); assay type: in vitro ADME
T3 construct: purchased Gentest Corp; host or cells: insect cells (baculovirus)
Method: All determinations were performed in duplicate.

[1] = test system: patients with mild to moderate hypertension, hyperlipidemia and diabetes mellitus; test: 14-week open-label forced dose-escalation study of P5P in hypertensive diabetics (concomitant statin); assay type: in vivo, human; conditions: individual patient; for Chol:HDL ratio V.1 / HDL cholesterol V.1 / LDL cholesterol V.1 / Total cholesterol V.1 / Triglycerides V.1: V1: 1st visit, Week One, Day 1, on statin; for Triglycerides V.12 / Chol:HDL ratio V.12 / HDL cholesterol V.12 / LDL cholesterol V.12 / Total cholesterol V.12: V12: Last Visit, Week 14, Day 98; for Triglycerides V.12: concomitant P5P (250 to 750 mg once daily) and statin; for Chol:HDL ratio V.12 / HDL cholesterol V.12 / LDL cholesterol V.12 / Total cholesterol V.12: concomitant P5P and statin
From the text: Patient Definition-Patients meeting all of the inclusion criteria and none of the exclusion criteria were eligible for enrollment. The primary inclusion criteria were hypertension and diabetes. At screening all patients must present with or have a history of, uncomplicated, stable, mild to moderate hypertension, (supine diastolic blood pressure SUDBP ≧90 and ≦114 mm Hg) regardless of use or non-use of treatment for this disease. […] The hypertensive patients must present with and have a history (>24 months) of diabetes mellitus (type 1 or 2), that is controlled or uncontrolled, at both screening and treatment initiation visits, to be eligible for inclusion in the study. Other than having diabetes and hypertension, patients must be in good health for their age. A history and physical examination must be within age-related normal limits, or if abnormal, considered clinically insignificant in the opinion of the investigator. Laboratory tests (CBC with differential, prothrombin and partial thrombo-plastin times, platelet count, and urinalysis and blood chemistry panel), must be normal, or if abnormal, considered clinically insignificant. Patients must have a normal ECG or, if abnormal, considered clinically insignificant. […] Essentially, all patients complete a fixed four-week placebo lead-in, to qualify for initiation of active treatment. Eligible patients then begin treatment with 250 mg/day of […]. This dose was administered orally on a daily basis for the next two (2) weeks, subject to dose-limiting side-effects, after which patients are force-titrated to 500 mg/day of […]. […] Thereafter, and for the final four (4) weeks of the study all patients were treated with placebo medication. […] Patients who were on anti-lipid medication prior to the initiation of the study continued their anti-lipid regime throughout the study. Primary Efficacy Evaluations • Supine diastolic blood pressure (SUDBP) measured at specified intervals; • Triglyceride, total cholesterol, LDL cholesterol, and HDL levels measured at specified intervals. […] Dosage Regimens-All patients receive treatment medication once daily, in the morning one hour before breakfast. At each dosing, the prescribed number of tablets will be taken orally, with water, to allow for the following dosing levels: The first dose of study medication is administered at clinic under the supervision of clinic personnel. Patients previously on anti-lipid therapy continued their anti-lipid regime unchanged throughout the study.

[2] = read-out: Expected Inhibitor IC50, value expected from assay validation (mean ± S.D., n ≧ 8 experiments)
[3] = read-out: Observed Inhibitor IC50

T3 sequence (P05181 whole entry): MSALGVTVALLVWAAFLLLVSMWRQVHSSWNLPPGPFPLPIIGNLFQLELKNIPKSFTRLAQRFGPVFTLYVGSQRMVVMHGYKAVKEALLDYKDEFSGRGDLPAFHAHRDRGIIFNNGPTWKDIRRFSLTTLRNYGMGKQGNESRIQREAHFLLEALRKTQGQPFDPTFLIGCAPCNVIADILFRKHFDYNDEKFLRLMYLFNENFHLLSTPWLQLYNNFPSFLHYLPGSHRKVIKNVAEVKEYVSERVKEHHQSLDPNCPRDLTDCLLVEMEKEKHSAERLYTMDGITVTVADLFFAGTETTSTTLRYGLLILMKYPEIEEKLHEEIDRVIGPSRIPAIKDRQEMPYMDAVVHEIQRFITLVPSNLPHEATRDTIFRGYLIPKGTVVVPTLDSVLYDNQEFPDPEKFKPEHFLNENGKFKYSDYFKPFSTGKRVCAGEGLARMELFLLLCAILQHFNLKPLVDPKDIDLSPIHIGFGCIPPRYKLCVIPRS

| SMILES | IC50 (CYP2B6; [2]) | IC50 (CYP2B6; [3]) | IC50 (CYP2A6; [2]) | IC50 (CYP2A6; [3]) | IC50 (CYP2E1; [3]) | IC50 (CYP2E1; value expected from assay validation (mean ± S.D., n ≧ 8 experiments), read-out: Expected Inhibitor IC50) | Chol:HDL ratio V.1 [1] | HDL cholesterol V.1 [1] | LDL cholesterol V.1 [1] | Total cholesterol V.1 [1] | Triglycerides V.1 [1] | Triglycerides V.12 [1] | Chol:HDL ratio V.12 [1] | HDL cholesterol V.12 [1] | LDL cholesterol V.12 [1] | Total cholesterol V.12 [1] |
| --- | --- | --- | --- | --- | --- | --- | --- | --- | --- | --- | --- | --- | --- | --- | --- | --- |
| N[C@@H]1C[C@H]1c1ccccc1 (racemic) [Tranylcypromine] | 8.82 ± 2.43 µM | 6.59 µM | 0.99 ± 0.209 µM | 0.605 µM | – | – | – | – | – | – | – | – | – | – | – | – |
| CCN(CC)C(=S)S [DDTC, Diethyldithiocarbamic acid] | – | – | – | – | 3.56 µM | 5.06 ± 1.96 µM | – | – | – | – | – | – | – | – | – | – |
| CC(C)c1c(C(=O)Nc2ccccc2)c(-c2ccccc2)c(-c2ccc(F)cc2)n1CC[C@@H](O)C[C@@H](O)CC(=O)O [Lipitor, atorvastatin] | – | – | – | – | – | – | 5.0 and 2.2 | 43 mg/dL and 62 mg/dL | 123 mg/dL and 55 mg/dL | 217 mg/dL and 136 mg/dL | 255 mg/dL and 96 mg/dL | 179 mg/dL and 106 mg/dL | 5.6 and 2.1 | 48 mg/dL and 75 mg/dL | 183 mg/dL and 63 mg/dL | 267 mg/dL and 159 mg/dL |
| CC[C@H](C)C(=O)O[C@H]1C[C@H](O)C=C2C=C[C@H](C)[C@H](CC[C@@H](O)C[C@@H](O)CC(=O)O)[C@H]21 [Pravachol, pravastatin] | – | – | – | – | – | – | 9.5 | 33 mg/dL | – | 313 mg/dL | 667 mg/dL | 365 mg/dL | 8.4 | 29 mg/dL | – | 243 mg/dL |
| CCC(C)(C)C(=O)O[C@H]1C[C@@H](C)C=C2C=C[C@H](C)[C@H](CC[C@@H]3C[C@@H](O)CC(=O)O3)[C@H]21 [Zocor, simvastatin] | – | – | – | – | – | – | 3.9 and 6.3 | 39 mg/dL and 43 mg/dL | 80 mg/dL and 185 mg/dL | 152 mg/dL and 272 mg/dL | 164 mg/dL and 222 mg/dL | 212 mg/dL and 187 mg/dL | 4.1 and 5.8 | 35 mg/dL and 40 mg/dL | 68 mg/dL and 153 mg/dL | 145 mg/dL and 230 mg/dL |
